From patent publication US11613531B2, “Inhibitors of RHO associated coiled-coil containing protein kinase” (Kadmon Corporation, LLC, priority 2017, dated 2023)
“And” between values parts separate entries of the source, which are not always exact repeats. Equal entries are not always repeated. Where two headings read alike, the source gives them in different places.

Columns and labels:
[1] = biological target: Recombinant ROCK1 (amino acids 1-535) (Homo sapiens (Human), UniProt Q13464); experiment: Z′-Lyte kinase assay, ROCK1; type: biochemical; settings: for inhibition at 3 µM: 3 μM compound; for inhibition at 3 µM / inhibition at 0.5 µM: read-out: ROCK1 % inh. @ [conc]; for inhibition at 0.5 µM: 0.5 μM compound
Recombinant ROCK1 (amino acids 1-535), sequence (Q13464 1-535): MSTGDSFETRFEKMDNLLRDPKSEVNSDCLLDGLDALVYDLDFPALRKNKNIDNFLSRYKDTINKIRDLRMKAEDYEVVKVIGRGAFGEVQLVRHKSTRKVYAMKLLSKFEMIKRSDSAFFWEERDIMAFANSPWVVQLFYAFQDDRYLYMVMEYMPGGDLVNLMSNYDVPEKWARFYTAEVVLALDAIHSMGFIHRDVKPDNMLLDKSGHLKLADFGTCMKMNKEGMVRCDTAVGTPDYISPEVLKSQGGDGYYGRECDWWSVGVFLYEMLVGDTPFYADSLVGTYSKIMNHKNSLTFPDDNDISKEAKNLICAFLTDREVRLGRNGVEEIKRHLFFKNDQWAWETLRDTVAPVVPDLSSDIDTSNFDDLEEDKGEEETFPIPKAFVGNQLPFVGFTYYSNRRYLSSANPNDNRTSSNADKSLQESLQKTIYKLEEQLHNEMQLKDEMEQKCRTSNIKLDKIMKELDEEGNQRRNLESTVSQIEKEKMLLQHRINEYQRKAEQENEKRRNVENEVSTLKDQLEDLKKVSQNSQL
Method: Determination of Compound's ROCK Inhibitory Activity In Vitro (Z'Lyte Assay).
Recombinant ROCK1 (amino acids 1-535) and ROCK2 (amino acids 1-552) proteins were purchased from ThermoFisher Scientific. Compound's activities were measured by Z′-lyte kinase kit (ThermoFisher Scientific) and IC50 was calculated
In vitro activities for the compounds were measured with Z′-lyte kinase kit (ThermoFisher Scientific). The percent inhibition rate was calculated by normalizing the kinase activity value obtained with 1 μM compound treatment against DMSO control value and then applied to the formula, [1-(compound/DMSO)]×100%. IC50s were calculated using the nonlinear regression curve fit function of the GraphPad Prism software with kinase activities data measured with 9 points 2-fold serial dilution of compounds treatment. In cell pMLC IC50s were calculated with data obtained from A7R5 cell experiments. A7R5 cells were treated with 9 points 2-fold serial dilution of compounds and ppMlc (T18/S19) levels were determined to calculate cellular IC50 values of the compounds using the nonlinear regression curve fit function of the GraphPad Prism software. NIH3T3 cells stably expressing ACTA2-promoter-driven-luciferase were applied to measure ROCK compounds functional IC50s in cells. Cells were plated in 96 well plates to confluence and treated with 9 points serial dilution of compounds in combination with TGFβ1 for 24 hr. Luciferase activities were measured and compound's IC50s were calculated using the nonlinear regression curve fit function of the GraphPad Prism software.

[2] = biological target: Recombinant ROCK2 (amino acids 1-552) (Homo sapiens (Human), UniProt O75116); experiment: Z′-Lyte kinase assay, ROCK2; type: biochemical; settings: for inhibition at 3 µM: 3 μM compound; for inhibition at 3 µM / inhibition at 0.5 µM: read-out: ROCK2 % inh. @ [conc]; for inhibition at 0.5 µM: 0.5 μM compound
Recombinant ROCK2 (amino acids 1-552), sequence (O75116 1-552): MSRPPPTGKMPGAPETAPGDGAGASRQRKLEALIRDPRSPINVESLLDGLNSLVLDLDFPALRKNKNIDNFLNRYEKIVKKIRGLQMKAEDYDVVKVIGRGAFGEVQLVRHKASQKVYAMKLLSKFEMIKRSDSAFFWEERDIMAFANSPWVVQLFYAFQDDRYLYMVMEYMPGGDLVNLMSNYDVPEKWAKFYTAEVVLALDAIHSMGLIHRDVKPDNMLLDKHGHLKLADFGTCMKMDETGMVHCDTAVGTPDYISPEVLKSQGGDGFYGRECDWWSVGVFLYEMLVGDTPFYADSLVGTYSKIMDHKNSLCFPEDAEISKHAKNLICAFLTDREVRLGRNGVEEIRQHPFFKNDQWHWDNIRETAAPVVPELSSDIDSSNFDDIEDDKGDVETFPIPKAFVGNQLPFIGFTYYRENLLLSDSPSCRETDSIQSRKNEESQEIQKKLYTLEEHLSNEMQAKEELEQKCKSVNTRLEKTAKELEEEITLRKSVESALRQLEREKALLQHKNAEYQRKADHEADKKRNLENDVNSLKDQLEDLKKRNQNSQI
Summary of the method: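 IC50s derive from nonlinear curve fits over a 9-point, 2-fold dilution series, with single-point inhibition at 1 μM expressed relative to DMSO. Activity of truncated human ROCK1 (residues 1-535) and ROCK2 (residues 1-552) measured with the Z′-Lyte kinase format.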

[3] = tested on: ppMlc (T18/S19) levels in A7R5 cells; experiment: A7R5 in-cell ELISA (pMLC); type: cell-based, Rat
Summary of the method: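 Cellular IC50 came from a nonlinear regression fit of ppMlc (T18/S19) signal, read by colorimetric in-cell ELISA on fixed cells. Rat A7R5 aortic smooth muscle cells had been exposed for 90 min to compounds in 9-point 2-fold serial dilution, 24 h after seeding.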

[4] = 9 points 2-fold serial dilution
[5] = Rattus norvegicus, A7R5, A7R5 cells, ppMlc (T18/S19)
[6] = Rattus norvegicus, A7R5, A7R5 cells, 10 μM compound, read-out: pMLC % inh A7R5 @ [conc]
[7] = Rattus norvegicus, A7R5, A7R5 cells

| SMILES | inhibition at 0.5 µM [1] [%] | IC50 [2] [nM] | inhibition at 0.5 µM [2] [%] | other results |
| --- | --- | --- | --- | --- |
| CCC1CN(c2nccc(Nc3ccc(-c4ccncc4)cc3)n2)CCCN1 (centres unmarked) [Example 248, 2-(3-ethyl-1,4-diazepan-1-yl)-N-(4-(pyridin-4-yl)phenyl)pyrimidin-4-amine] | – | – | – | inhibition at 3 µM [1]: 100%; IC50 [1, 4]: 36 nM; inhibition at 3 µM [2]: 100%; IC50 [2, 4]: 43.9 nM; IC50 [3, 5]: 968 nM |
| CC(C)C1CCN(c2nccc(Nc3ccc(-c4ccncc4)cc3)n2)CCN1 (centres unmarked) [Example 250, 2-(5-isopropyl-1,4-diazepan-1-yl)-N-(4-(pyridin-4-yl)phenyl)pyrimidin-4-amine] | – | – | – | IC50 [1, 4]: > 1000 nM; IC50 [2, 4]: > 1000 nM; inhibition at 10 µM [3, 6]: 50.4%; IC50 [3, 5]: 5440 nM |
| c1cc2[nH]ncc2cc1Nc1nc(N2C3CNCC2C3)nc2c1COC2 [Example 283, 2-(3,6-diazabicyclo[3.1.1]heptan-6-yl)-N-(1H-indazol-5-yl)-5,7-dihydrofuro[3,4-d]pyrimidin-4-amine] | 101 | < 0.1 | 101 | inhibition at 1 µM ([3]; Rattus norvegicus, A7R5, A7R5 cells, 1 μM compound, read-out: pMLC % inh A7R5 @ [conc]): 25.8% |
| Clc1cnc(N2CCNCC2)nc1Nc1ccc2[nH]ncc2c1 [Example 178, N-(5-chloro-2-(piperazin-1-yl)pyrimidin-4-yl)-1H-indazol-5-amine] | – | – | – | IC50 [1, 4]: 388 nM; IC50 [2, 4]: 159 nM; inhibition at 10 µM [3, 6]: 47.5%; IC50 [3, 5]: 706 nM |
| c1ccc(C2CCN(c3nccc(Nc4ccc5[nH]ncc5c4)n3)CCN2)cc1 (centres unmarked) [Example 63, N-(2-(5-phenyl-1,4-diazepan-1-yl)pyrimidin-4-yl)-1H-indazol-5-amine] | – | – | – | inhibition at 3 µM [1]: 100%; IC50 [1, 4]: > 1000 nM; inhibition at 3 µM [2]: 100%; IC50 [2, 4]: > 1000 nM; IC50 [3, 5]: 25100 nM |
| c1cc(Nc2ccc3[nH]ncc3c2)nc(N2CCCNCC2)n1 [Example 35, N-(2-(1,4-diazepan-1-yl)pyrimidin-4-yl)-1H-indazol-5-amine] | – | 15 | – | IC50 [1]: 16 nM; inhibition at 3 µM [1]: 100%; inhibition at 3 µM [2]: 98.9%; IC50 [3, 7]: 416 nM; inhibition at 10 µM [3, 6]: 68.1% |
| c1ccc(C2CN(c3nccc(Nc4ccc(-c5ccncc5)cc4)n3)CCCN2)cc1 (centres unmarked) [Example 18, 2-(3-phenyl-1,4-diazepan-1-yl)-N-(4-(pyridin-4-yl)phenyl)pyrimidin-4-amine] | – | – | – | IC50 [1, 4]: 332 nM; IC50 [2, 4]: 206 nM; inhibition at 10 µM [3, 6]: 11% |
| CC1CCN(c2nccc(Nc3ccc4[nH]ncc4c3)n2)CCN1 (centres unmarked) [Example 57, N-(2-(5-methyl-1,4-diazepan-1-yl)pyrimidin-4-yl)-1H-indazol-5-amine] | – | – | – | inhibition at 3 µM [1]: 17.4%; inhibition at 3 µM [2]: 93.4%; inhibition at 10 µM [3, 6]: 60.6%; IC50 [3, 5]: 1220 nM |
| c1cc(-c2ccc(Nc3ccnc(N4CCCNCC4)n3)cc2)ccn1 [Example 273, 2-(1,4-diazepan-1-yl)-N-(4-(pyridin-4-yl)phenyl)pyrimidin-4-amine] | – | – | – | inhibition at 3 µM [1]: 89.1%; inhibition at 3 µM [2]: 85.6%; inhibition at 10 µM [3, 6]: 44.1% |
| N[C@@H]1CCN(c2nccc(Nc3ccc4[nH]ncc4c3)n2)C1 [Example 231, (R)—N-(2-(3-aminopyrrolidin-1-yl)pyrimidin-4-yl)-1H-indazol-5-amine] | – | 276 | – | IC50 [1]: > 10000 nM; pMLC % inh A7R5 @ [conc] ([3]; A7R5 cells, 10 μM compound): 94.24, % and 63.4%; IC50 [3, 7]: 335 nM |
| CCOOCC12CNCC1(C(F)(F)F)CN(c1ncc(F)c(Nc3ccc4[nH]ncc4c3)n1)C2 (centres unmarked) [Example 328, N-(2-(3a-((ethylperoxy)methyl)-6a-(trifluoromethyl)hexahydropyrrolo[3,4-c]pyrrol-2(1H)-yl)-5-fluoropyrimidin-4-yl)-1H-indazol-5-amine] | 8 | – | 7 | – |
| CCOC(=O)[C@]12CCNCCC1CN(c1ncc(Cl)c(Nc3ccc4[nH]ncc4c3)n1)C2 (stereo partly drawn) [Example 323, Ethyl (3αR,8αR)-2-(4-((1H-indazol-5-yl)amino)-5-chloropyrimidin-2-yl)octahydropyrrolo[3,4-d]azepine-3α(1H)-carboxylate] | 17 | – | 29 | – |
| CCOC(=O)C1NC2CC1CN(c1ncc(F)c(Nc3ccc4[nH]ncc4c3)n1)C2 (centres unmarked) [Example 339, Ethyl 3-(4-((1H-indazol-5-yl)amino)-5-fluoropyrimidin-2-yl)-3,6-diazabicyclo[3.2.1]octane-7-carboxylate] | 56 | 211 | 75 | – |
| c1cc2c(Nc3ccc4[nH]ncc4c3)nc(N3C4CCC3CNC4)nc2s1 [Example 274, 2-(3,8-diazabicyclo[3.2.1]octan-8-yl)-N-(1H-indazol-5-yl)thieno[2,3-d]pyrimidin-4-amine] | 101 | 0.4 | 99 | – |
| c1cc(-c2cn[nH]c2)ccc1Nc1nc(N2C3CCC2CNC3)nc2c1COC2 [Example 279, N-(4-(1H-pyrazol-4-yl)phenyl)-2-(3,8-diazabicyclo[3.2.1]octan-8-yl)-5,7-dihydrofuro[3,4-d]pyrimidin-4-amine] | 76 | 40 | 85 | – |
| CCOC(=O)C12CNCC1(C(F)(F)F)CN(c1ncc(Cl)c(Nc3ccc4[nH]ncc4c3)n1)C2 (centres unmarked) [Example 338, Ethyl 2-(4-((1H-indazol-5-yl)amino)-5-chloropyrimidin-2-yl)-6a-(trifluoromethyl)hexahydropyrrolo[3,4-c]pyrrole-3a(1H)-carboxylate] | 3 | – | 13 | – |
| c1cc2[nH]ncc2cc1Nc1nc(N2C3CCC2CNC3)nc2c1CNC2 [Example 275, 2-(3,8-diazabicyclo[3.2.1]octan-8-yl)-N-(1H-indazol-5-yl)-6,7-dihydro-5H-pyrrolo[3,4-d]pyrimidin-4-amine] | 95 | 1.2 | 90 | – |
| c1cc2[nH]ncc2cc1Nc1nc(N2C3CCC2CNC3)nc2c1COCC2 [Example 46, 2-(3,8-diazabicyclo[3.2.1]octan-8-yl)-N-(1H-indazol-5-yl)-7,8-dihydro-5H-pyrano[4,3-d]pyrimidin-4-amine] | 98 | 1 | 98 | – |
| c1cc(-c2cn[nH]c2)ccc1Nc1nc(N2C3CCC2CNC3)nc2c1COCC2 [Example 243, N-(4-(1H-pyrazol-4-yl)phenyl)-2-(3,8-diazabicyclo[3.2.1]octan-8-yl)-7,8-dihydro-5H-pyrano[4,3-d]pyrimidin-4-amine] | 67 | 56 | 80 | – |
| c1cc(-c2cn[nH]c2)ccc1Nc1nc(N2C3CCC2CNC3)nc2c1CNC2 [Example 276, N-(4-(1H-pyrazol-4-yl)phenyl)-2-(3,8-diazabicyclo[3.2.1]octan-8-yl)-6,7-dihydro-5H-pyrrolo[3,4-d]pyrimidin-4-amine] | 88 | 2.3 | 91 | – |
| CCOC(=O)[C@]12CCNCCC1CN(c1ncc(F)c(Nc3ccc4[nH]ncc4c3)n1)C2 (stereo partly drawn) [Example 322, Ethyl (3αR,8αR)-2-(4-((1H-indazol-5-yl)amino)-5-fluoropyrimidin-2-yl)octahydropyrrolo[3,4-d]azepine-3α(1H)-carboxylate] | 17 | – | 29 | – |
| c1cc2nc(N3C4CCC3CNC4)nc(Nc3ccc4[nH]ncc4c3)c2s1 [Example 282, 2-(3,8-diazabicyclo[3.2.1]octan-8-yl)-N-(1H-indazol-5-yl)thieno[3,2-d]pyrimidin-4-amine] | 101 | < 0.1 | 99 | – |
